# Assay results published in patent US8198033B2, “Methods and materials for observing apoptosis” (Genentech, Inc., priority 2006, dated 2012).
# Columns and labels:
# Assay type in all cases: cell-based, human
# [1] = system: BJAB and Colo205 cells; assay: Transferrin (Tf) endocytosis rate by flow cytometry
# Protocol: The cells were then equilibrated on ice for 30 min with Alexa-647-conjugated Tf (^647TF) and uptake at 37° C. was measured by flow cytometry. Each endocytosis rate was derived from the slope of the initial linear phase of a 4 min uptake kinetics plot (a, inset). […] Rates were normalized to the DMSO treated sample (±SEM).
# Sedimented cells were resuspended in cold 2% paraformaldehyde/PBS and mean fluorescence intensity of 10,000 cells quantified with a Coulter Epics Elite-ESP flow cytometer (Hialeah, Fla.). Endocytic rates were determined from linear slopes of steady-state internal/surface plots (see, e.g., Wiley, H. S. et. al, J Biol Chem 257, 4222-9 (1982)). For temperature-shift experiments, ice binding incubations were avoided. Instead, cells were preconditioned for 20 min and maintained at 30° C. or 38° C. in binding medium, incubated an additional 0 (control) or 20 min with ^647Tf, chilled on ice for 30 min, and processed for flow cytometry to determine internal/surface ^647Tf ratios.
# [2] = system: caspase-3/7; assay: Caspase-3/7 activity assay (Apo-One); settings: after induction of dynG273D, 38° C. compared to 30° C.
# Protocol: The caspase-3/7 assay was performed using Apo-One Homogenous Caspase-3/7 Assay (Promega). […] Lysates were incubated at room temperature for 1 hour before reading in a fluorometer at 485/530 […].
# [3] = system: DynG273D-transduced BJAB cells; assay: Apoptosis assay (sub-diploid DNA, DNA fragmentation); settings: induction of dynG273D and temperature-shift to 38° C.
# Protocol: Cells were stained with propidium iodide after ethanol fixation and RNase treatment and the amount of sub-diploid DNA was analyzed by flow cytometry as previously described, using Expo32 software with an Epics XL.MCL cytometer (Coulter Beckman), (see, e.g., Nicholson, D. W., Cell Death Differ 6, 1028-42 (1999)).
# [4] = system: DR5; assay: Temperature-shift DR5 uptake in DynG273D-transduced BJAB cells; settings: doxycyclin-stimulated dynG273D expression, 20 min
# Protocol: (a-d) Dyn^G273D-transduced HeLa-M cells were puromycin-selected, doxycycline-induced, pre-incubated for 20 min at the indicated temperature, then incubated another 20 min in the presence of Alexa-488 conjugated Tf (^488Tf). Cells were then processed for immunofluorescence microscopy using a dynamin-1 specific antibody. (e, f) Nontransduced (parental) or clonal Dyn1^G273D-transduced BJAB cells with (+dox) or without (no dox) doxycycline induction were assayed for ^488Tf or ^6475C7 uptake over a 20 min period at 30° C. (white bars) or 38° C. (black bars) by flow cytometry and means plotted (±SD).
# Cells were acid stripped or not and quantified by flow cytometry.
# [5] = system: DISC; assay: DISC immunoprecipitation
# Protocol: (a) BJAB cells were equilibrated with ^647Tf on ice, incubated for the indicated uptake interval at 37° C. or on ice, then fluorescence quantified by flow cytometry. […] DISC-associated FADD and caspase-8 were visualized by immunoblot. (c, d) Dyn^G273D-transduced BJAB cells were treated with buffer (No Dox) or doxycyline (Dox) and shifted to 38° C. for 20 min to inactivate dynamin. The cells were treated with crosslinked Apo2L/TRAIL for the indicated amounts of time and the DISC was immunoprecipitated. DISC-associated FADD and caspase-8 were visualized by immunoblot (c) or DISC-associated caspase-8 activity was measured as described previously (Sharp et al. J Biol Chem 280, 19401-409, 2005).
# BJAB cells (1×10^7 per time point) were treated with Flag-Apo2L/TRAIL cross-linked by anti-FLAG M2 Abs, collected, lysed, immunoprecipitated and the DISC was analyzed as described (see, e.g., Kischkel, F. C. et al., Immunity 12, 611-20 (2000)).
# [6] = system: AP2α, AP1/2β, clathrin heavy chain (CHC), dynamin; assay: Immunoblot for cleavage of clathrin-dependent endocytosis machinery and caspases in cell lysates
# Protocol: (b) Colo205 cells were treated as in (a) and analyzed by immunoblot for processing of specific components of various types of clathrin-associated endocytic trafficking.
# Open arrows indicate cleavage products and solid arrows indicate full-length proteins.
# (c) BJAB cells were treated with crosslinked Apo2L/TRAIL and processing of dynamin was determined by immunoblot.
# The cells were analyzed by immunoblot for processing of caspase-8, caspase-9, caspase-3, and AP2α.
# Human colorectal adenocarcinoma Colo205 cells human B cell lymphoma BJAB cells and human T cell carcinoma Jurkat wild type cells (A3 clone), FADD-deficient (E1) and caspase-8-deficient (I9.3) were cultured in RPMI 1640+10% fetal bovine serum (FBS)+2 mM glutamine+1000 U/ml Penicillin-Streptomycin (Life Technologies). Human cervical carcinoma HeLa-M cells human breast adenocarcinoma MCF7 and human colorectal adenocarcinomas HCT15, HCT8, SW948, Colo320, human fibrosarcoma HT180 (ATCC), HCT116 Bax(−/−), HCT116 Bax(+/−) were grown in 50:50 Dulbecco's modified Eagle's and FK12 medium+10% FBS+1000 U/ml Penicillin-Streptomycin. cDNA clones encoding temperature-sensitive dynamins were the G273D mutant and dominant negative K44A mutant dynamin-1 (Dyn^G273D and Dyn^K44A, respectively). Dyn^G273D was expressed from pHUSH-ProEx, a single retroviral plasmid tetracycline-inducible expression system constructed at Genentech. The cDNA was first cloned into a shuttle plasmid containing a CMV enhancer-promoter sequence with two copies of the tetracycline operator TetO2, then transferred via in vitro phage lamda-based recombination, or Gateway® technology (Invitrogen, Carlsbad), to a Moloney murine leukemia virus backbone vector in which the wild type Tet repressor is driven by a separate β-actin promoter and followed by an internal ribosomal entry sequence and puromycin selection cassette. Dyn^K44A was expressed from the 2-vector tetracycline-inducible retroviral expression system, pRevTet-On/pRev-Tre (Clontech), using serial infections. Retroviral vectors were transfected into Phoenix amphotropic Moloney Murine Leukemia Virus packaging cells using Lipofectamine 2000 […]. Retroviral particles were harvested and used in HeLa-M and BJAB cell infections as described previously (Simpson et al. J Cell Biol 137, 835-45, 1997). Dyn^G273 infected cells were puromycin selected (2-3 μg/ml) for 1-2 weeks and cloned either by manually picking individual HeLa-M colonies or by FACS sorting of resistant BJAB cells (gated for exclusion of propidium iodide) and single cell seeding in 96-well cell culture plates using an EPICS ELITE-ESP equipped with an Autoclone device (Coulter, Hialeah, Fla.). Cell clones were screened for uniformity of doxycycline inducible dynamin-1 expression by immunofluorescence microscopy. Dyn^K44A-infected cells were hygromycin B (400 μg/ml) and G418 (1 mg/ml) selected for 1-2 weeks. Induction with doxycycline (1 μg/ml) was performed at 32° C. for 72 hr as described previously (Damke et al. J Cell Biol 131, 69-80 1995). Vincristine sulfate (#T-117), Adriamycin.HCL (GR-319) were purchased from Biomol, tetracycline-free FBS from Hyclone, Puromycin from Clontech and Doxycyclin from Sigma. zVAD-fmk (asN-benzyloxycarbonyl-Val-Ala-Asp-fluoromethylketone) was obtained from MD Biosciences (#FK-009). […]
# [7] = MCF7 cells, deficient in caspase-3
substance,measurement,setting,value
"Apo2L/TRAIL: Human recombinant soluble Apo2L/TRAIL in non-tagged (trimeric) or Flag-tagged, antibody-crosslinked versions; SEQ ID NO: 7",Inhibition of the rate of Tf endocytosis,"[1]; BJAB and Colo205 cells, pretreatment at 37° C.",75-85%
same,Reduction of Tf endocytosis rate,"[1]; Colo205 cells, extended exposure for 2 hr at 37° C.",5 fold
same,Ligand-stimulated caspase-3/7 enzymatic activity,[2],substantial increase
same,Apoptosis (cells with fragmented DNA),[3],augmented apoptosis
same,Ligand-induced DR5 uptake,[4]; 30° C.,~25%
same,Ligand-induced DR5 uptake,[4]; 38° C.,~10%
same,DISC assembly with Tf endocytosis blocked,[5]; BJAB cells chilled on ice,still recruited FADD and caspase-8 to their respective receptors and processed caspase-8
same,"DISC formation, caspase-8 processing and activity despite endocytosis inhibition","[5]; dynG273D BJAB cells, 38° C.","comparable DISC formation, caspase-8 processing, and caspase-8 activity in the DISC"
same,Start of depletion of full-length dynamin after stimulation,"[6]; BJAB cells, crosslinked Apo2L/TRAIL",≤ 1 h
same,Cleavage of AP2α isoform C,"[6]; BJAB, Colo205, LS1034 and SW948 cells",did not induce cleavage of isoform C
same,Caspase processing,[6]; Bax+/- HCT116 cells,stimulated processing of both caspase-8 and -3
same,Caspase processing,[6]; Bax-/- HCT116 cells,only of caspase-8
same,"Proteolysis of structurally analogous adaptors (AP1α, AP3β and δ, AP4ε, β-COP, Sec23)","[6]; Colo205 cells, similar timeframe",did not induce proteolysis
same,CHC cleavage,[6]; [7],did not stimulate CHC cleavage
same,Processing of caspase-8 and AP2α,[6]; [7],relatively weak and slow processing of caspase-8 and AP2α
same,Processing of AP2α and CHC,[6]; caspase-8-deficient or FADD-deficient mutant Jurkat cell lines,neither ligand stimulated processing of these targets
same,"Processing of caspase-8 and -3 and cleavage of AP2α, AP1/2β and CHC","[6]; several cancer cell lines, susceptible Colo205, BJAB, HeLa-M, not resistant HCT8","cleavage of AP2α, AP1/2β, and clathrin heavy-chain (CHC)"
same,"Time within which caspase processing and AP2α, AP1/2β, CHC cleavage occurred","[6]; susceptible cell lines Colo205, BJAB, HeLa-M",≤ 2 h
same,Cleavage of AP2α and CHC,[6]; wt Jurkat T cells,induced cleavage of AP2α and CHC
